# Test results published in PMC8300687, “A Fine-Tuned Lipophilicity/Hydrophilicity Ratio Governs Antibacterial Potency and Selectivity of Bifurcated Halogen Bond-Forming NBTIs” (Antibiotics, 2021).
# Like-named read-outs stand apart in the source and are kept apart here.
# Columns and labels:
# Human topoisomerase IIα = target: T1, Human topoisomerase IIα (Homo sapiens, UniProt P11388); test: Human topoisomerase II Alpha Relaxation High Throughput Plate assay; assay type: biochemical; details: 0.5 h; residual activity of the enzyme at compound concentration 10 μM, mean ± SD; read-out: Human Topo II (% RA)
# T1 construct: purchased Inspiralis (Norwich, UK)
# T1 sequence (P11388 whole entry): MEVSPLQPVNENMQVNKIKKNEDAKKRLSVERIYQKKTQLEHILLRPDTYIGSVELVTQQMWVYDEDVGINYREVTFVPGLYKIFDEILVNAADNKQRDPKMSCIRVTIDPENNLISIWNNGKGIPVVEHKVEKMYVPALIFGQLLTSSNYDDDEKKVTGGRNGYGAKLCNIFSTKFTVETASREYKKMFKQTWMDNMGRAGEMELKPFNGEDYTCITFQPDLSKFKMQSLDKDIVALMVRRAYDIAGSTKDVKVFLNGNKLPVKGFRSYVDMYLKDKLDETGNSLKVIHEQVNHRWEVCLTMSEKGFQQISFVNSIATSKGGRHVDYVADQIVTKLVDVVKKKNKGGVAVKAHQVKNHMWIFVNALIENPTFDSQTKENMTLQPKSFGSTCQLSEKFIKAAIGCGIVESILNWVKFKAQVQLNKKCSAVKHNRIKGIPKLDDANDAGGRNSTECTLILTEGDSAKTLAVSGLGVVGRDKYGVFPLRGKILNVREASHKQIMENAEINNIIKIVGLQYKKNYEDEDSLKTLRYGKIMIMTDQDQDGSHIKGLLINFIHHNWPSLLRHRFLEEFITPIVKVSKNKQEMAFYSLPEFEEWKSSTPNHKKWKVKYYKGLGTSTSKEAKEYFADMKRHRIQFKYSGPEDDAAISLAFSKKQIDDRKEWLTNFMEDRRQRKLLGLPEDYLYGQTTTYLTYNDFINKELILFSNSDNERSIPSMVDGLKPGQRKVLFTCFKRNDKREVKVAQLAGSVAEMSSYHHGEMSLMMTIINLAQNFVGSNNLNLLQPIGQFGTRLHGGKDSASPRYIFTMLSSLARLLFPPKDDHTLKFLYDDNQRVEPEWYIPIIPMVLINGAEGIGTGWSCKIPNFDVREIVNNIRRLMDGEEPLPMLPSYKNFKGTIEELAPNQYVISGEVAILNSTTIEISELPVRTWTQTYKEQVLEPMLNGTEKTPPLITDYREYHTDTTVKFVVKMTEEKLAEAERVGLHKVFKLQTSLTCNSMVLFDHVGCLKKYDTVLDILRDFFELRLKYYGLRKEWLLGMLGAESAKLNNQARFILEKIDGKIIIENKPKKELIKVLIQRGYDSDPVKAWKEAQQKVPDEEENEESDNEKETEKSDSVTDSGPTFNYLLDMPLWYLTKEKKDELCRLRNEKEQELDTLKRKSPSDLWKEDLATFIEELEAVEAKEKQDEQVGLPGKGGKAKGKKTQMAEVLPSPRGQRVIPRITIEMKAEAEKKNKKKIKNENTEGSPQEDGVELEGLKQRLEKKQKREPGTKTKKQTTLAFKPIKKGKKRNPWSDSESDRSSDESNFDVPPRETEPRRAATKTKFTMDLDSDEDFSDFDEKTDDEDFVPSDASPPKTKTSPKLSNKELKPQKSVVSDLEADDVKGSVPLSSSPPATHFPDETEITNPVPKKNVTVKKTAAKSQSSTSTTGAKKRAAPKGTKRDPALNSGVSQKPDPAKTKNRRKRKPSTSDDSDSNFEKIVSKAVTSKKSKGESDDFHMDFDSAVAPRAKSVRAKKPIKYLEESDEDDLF
# Protocol: A Human topoisomerase II Alpha Relaxation High Throughput Plate assay kit, purchased from Inspiralis (Norwich, UK) was used to evaluate the selectivity of compounds for the bacterial enzymes over the homologous human topoisomerase II. […] Biotinylated oligonucleotide in wash buffer was immobilized onto the wells and the excess oligonucleotide was washed off with wash buffer. […] The reactions were stopped by adding the TF buffer (50 mM NaOAc (pH 4.7), 50 mM NaCl, and 50 mM MgCl2) to allow the triplex formation (biotin-oligonucleotide-plasmid) for additional 30 min. Afterward, the unbound plasmid was washed off using TF buffer, and the solution of Promega Diamond dye in T10 buffer (10 mM Tris-HCl (pH 8.0), 1 mM EDTA) was added. […] Screening was performed at inhibitor concentrations of 10 μM. Raw data were converted to mean ± SD percentage of residual activity of the enzyme obtained by two independent measurements.
# S. aureus (ATCC 29213) = test: MIC broth microdilution, S. aureus ATCC 29213; assay type: cell-based
# Protocol: (§1) Antimicrobial testing was carried out by the broth microdilution method in 96-well plate format following the Clinical and Laboratory Standards Institute (CLSI) guidelines and European Committee on Antimicrobial Susceptibility Testing (EUCAST) recommendations. Bacterial suspension of specific bacterial strain equivalent to 0.5 McFarland turbidity standard was diluted with cation-adjusted Mueller Hinton broth with TES (Thermo Fisher Diagnostic, Landsmeer, The Netherlands), to obtain a final inoculum of 10^5 CFU/mL. Compounds dissolved in DMSO and inoculum were mixed together and incubated for 18–20 h at 35 °C. Suspensions of Mycobacterium sp. were prepared into a tube of Middelbrook 7H9 broth supplemented with 5% OADC (Thermo Scientific, Trek Diagnostic Systems, West Sussex, UK) and incubated for at least 10 days. After incubation the minimal inhibitory concentration (MIC) values were determined by visual inspection as the lowest dilution of compounds showing no turbidity. Tetracycline was used as a positive control on every assay plate.
# MRSA = test: MIC broth microdilution, MRSA; assay type: cell-based, methicillin-resistant S. aureus; details: Staphylococcus aureus, read-out: MIC MRSA
# Protocol: as §1
# MRSA (QA-11.7) = test: MIC broth microdilution, MRSA QA-11.7; assay type: cell-based, methicillin-resistant S. aureus; details: Staphylococcus aureus, 20 h, read-out: MIC MRSA (QA-11.7)
# Protocol: as §1
# MRSA (QA-11.6) = test: MIC broth microdilution, MRSA QA-11.6; assay type: cell-based, methicillin-resistant S. aureus; details: Staphylococcus aureus, read-out: MIC MRSA (QA-11.6)
# Protocol: as §1
# MRSA (QA-11.4) = test: MIC broth microdilution, MRSA QA-11.4; assay type: cell-based, methicillin-resistant S. aureus; details: Staphylococcus aureus, 20 h, read-out: MIC MRSA (QA-11.4)
# Protocol: as §1
# MRSA (QA-11.2) = test: MIC broth microdilution, MRSA QA-11.2; assay type: cell-based, methicillin-resistant S. aureus; details: Staphylococcus aureus, 20 h, read-out: MIC MRSA (QA-11.2)
# Protocol: as §1
# S. pneumoniae (QA-10/02) = test: MIC broth microdilution, S. pneumoniae; assay type: cell-based; details: Streptococcus pneumoniae
# Protocol: as §1
# E. coli (QA-11.8) = test: MIC broth microdilution, E. coli QA-11.8; assay type: cell-based
# Protocol: as §1
# E. coli (QA-11.7) = test: MIC broth microdilution, E. coli QA-11.7; assay type: cell-based; details: Escherichia coli, 20 h, read-out: MIC E. coli (QA-11.7)
# Protocol: as §1
# E. coli D22 = test: MIC broth microdilution, E. coli D22; assay type: cell-based; details: Escherichia coli
# Protocol: as §1
# [1] = system: S. alachua RDK 030c (QA-1482/04); test: MIC broth microdilution, S. alachua; assay type: cell-based
# Protocol: as §1
# [2] = system: C. jejuni RDK 135 (ATCC 33560); test: MIC broth microdilution, C. jejuni; assay type: cell-based
# Protocol: as §1
# M. smegmatis = test: MIC, M. smegmatis; assay type: cell-based, Mycobacterium smegmatis; details: Mycolicibacterium smegmatis; read-out: MIC M. smegmatis
# Protocol: as §1
# M. avium = test: MIC, M. avium; assay type: cell-based
# Protocol: as §1
# [3] = Equilibrium solubility at pH 6.8; details: for solubility thermodynamic at 24 h: phosphate buffered saline, 37 °C, pH 6.8, aqueous buffer, thermodynamic from solid; for solubility at pH 6.8 in words: pH 6.8, single-dose in 500 mL
# Outline: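 Concentrations in solution were read by compound-specific isocratic HPLC calibrated with 30–90 mg/L external standards, after 5 min homogenization and 24 h shaking at 1200 RPM, 37 °C.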
# in vitro = details: for Papp at 4 h: PAMPA; for PAMPA permeability classification [low/high]: relative to reference drugs
# Outline: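 Compounds measured by HPLC (isocratic, compound-specific methods) after 4-h incubation at 37 °C across a three-layer artificial membrane into pH 7.4 PBS acceptor. Permeability derived from donor and acceptor peak areas, using diluted starting donor solution as external standard.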
# [4] = Staphylococcus aureus, ATCC29213; S. aureus ATCC 29213; read-out: S. aureus MIC (converted)
# [5] = Staphylococcus aureus, ATCC29213; read-out: MIC S. aureus (ATCC 29213)
# [6] = resistant to cefoxitin, gentamicin, sulfamethoxazole, tetracycline
# [7] = resistant to cefoxitin, chloramphenicol, clindamycin, linezolid, tetracycline, thiamulin, trimethoprim
# [8] = Escherichia coli, 20 h; read-out: MIC E. coli (QA-11.8)
# [9] = multi-resistant isolate (ampicillin, azithromycin, cefotaxime, ertapenem, imipenem and others)
# [10] = D22, mutation in the lpxC gene that increases membrane permeability, read-out: MIC E. coli D22
# [11] = Salmonella; read-out: MIC S. alachua RDK 030c (QA-1482/04)
# [12] = Campylobacter jejuni, ATCC33560; read-out: MIC C. jejuni RDK 135 (ATCC 33560)
# [13] = Mycobacterium avium; read-out: MIC M. avium
SMILES,remaining activity at 10 µM (Human topoisomerase IIα) [%],MIC (S. aureus (ATCC 29213); [4]) [µM],MIC (S. aureus (ATCC 29213); [5]) [µg/mL],MIC (MRSA) [µg/mL],MIC (MRSA (QA-11.7)) [µg/mL],MIC (MRSA (QA-11.6); [6]) [µg/mL],MIC (MRSA (QA-11.4); resistant to cefoxitin) [µg/mL],MIC (MRSA (QA-11.2); [7]) [µg/mL],MIC (S. pneumoniae (QA-10/02)) [µg/mL],MIC (E. coli (QA-11.8); [8]) [µg/mL],MIC (E. coli (QA-11.7); [9]) [µg/mL],MIC (E. coli D22; [10]) [µg/mL],"MIC [1, 11] [µg/mL]","MIC [2, 12] [µg/mL]",MIC (M. smegmatis) [µg/mL],MIC (M. avium; [13]) [µg/mL],solubility thermodynamic at 24 h [3] [µg/mL],Papp at 4 h (in vitro) [×10⁻⁶ cm/s],Papp at 4 h (in vitro; pH 7.4) [×10⁻⁶ cm/s],PAMPA permeability classification [low/high] (in vitro),also measured
"COc1ccc2nccc(CCN3CCC(NCc4ccc(OC(F)F)c(OC)c4)CC3)c2n1 [Compound 19, N-(4-(Difluoromethoxy)-3-methoxybenzyl)-1-(2-(6-methoxy-1,5-naphthyridin-4-yl)ethyl)piperidin-4-amine]",96.4 ± 2.3,2.12,1,2,2,2,2,2,2,4,2,16,128,2,4,128,79,> 2.7,9,,
"COc1ccc2nccc(CCN3CCC(NC(=O)c4cn5cccc(C#N)c5n4)CC3)c2n1 [Compound 7, 8-Cyano-N-(1-(2-(6-methoxy-1,5-naphthyridin-4-yl)ethyl)piperidin-4-yl)imidazo[1,2-a]pyridine-2-carboxamide]",90.3 ± 7.56,281,,> 128,> 128,,,,128,,,,,,16,,883,,2.6,int erm ediat e,"MIC (S. aureus (ATCC 29213); Staphylococcus aureus, ATCC29213, read-out: MIC S. aureus (ATCC 29213)): > 128 µg/mL; MIC (MRSA (QA-11.6)): > 128 µg/mL; MIC (MRSA (QA-11.4)): > 128 µg/mL; MIC (MRSA (QA-11.2)): > 128 µg/mL; MIC (E. coli (QA-11.8); Escherichia coli, 20 h, read-out: MIC E. coli (QA-11.8)): > 128 µg/mL; MIC (E. coli (QA-11.7)): > 128 µg/mL; MIC (E. coli D22; D22, read-out: MIC E. coli D22): > 128 µg/mL; MIC ([1]; Salmonella, read-out: MIC S. alachua RDK 030c (QA-1482/04)): > 128 µg/mL; MIC ([2]; Campylobacter jejuni, ATCC33560, read-out: MIC C. jejuni RDK 135 (ATCC 33560)): > 128 µg/mL; MIC (M. avium; Mycobacterium avium, read-out: MIC M. avium): > 128 µg/mL"
"COc1ccc2nccc(CCN3CCC(NCc4cnn(C(C)C)c4)CC3)c2n1 [Compound 9, N-((1-Isopropyl-1H-pyrazol-4-yl)methyl)-1-(2-(6-methoxy-1,5-naphthyridin-4-yl)ethyl)piperidin-4-amine]",101 ± 6.82,0.31,0.125,0.25,1,1,1,1,0.5,8,2,1,64,0.5,0.25,128,7550,> 2.7,3.3,,solubility at pH 6.8 in words [3]: soluble at this pH in any conceivable single-dose
COc1ccc2nccc(CCN3CCC(NCc4ccc(CO)cc4)CC3)c2n1 [Compound 16],97.7 ± 1.08,9.84,4,4,4,4,8,8,2,128,32,16,> 128,32,32,> 128,3390,,1.5,int erm ediat e,solubility at pH 6.8 in words [3]: soluble at this pH in any conceivable single-dose
COc1ccc2nccc(CCN3CCC(NCc4ccc(F)cc4)CC3)c2n1 [Compound 12],101 ± 11.2,2.54,1,2,4,4,4,4,2,16,8,16,128,1,2,32,460,> 2.7,12.1,,
"COc1ccc2nccc(CCN3CCC(NCc4ccc(C(F)(F)F)nc4)CC3)c2n1 [Compound 21, 1-(2-(6-Methoxy-1,5-naphthyridin-4-yl)ethyl)-N-((6-(trifluoromethyl)pyridin-3-yl)methyl)piperidin-4-amine]",95.5 ± 2.39,0.56,0.25,0.5,1,0.5,1,0.5,1,8,2,4,128,128,0.25,4,209,> 2.7,8.3,,
